This passage reports DC50 results from ChEMBL document CHEMBL4825772, “Protein Degradation Inducers of Androgen Receptor by Conjugation of Antagonists Androgen Receptor and E3 Ligase Ligand” (ACS Med Chem Lett, 2021).

The structures appear in SMILES notation.

Sequence of Protein cereblon/Androgen receptor (P10275 whole entry): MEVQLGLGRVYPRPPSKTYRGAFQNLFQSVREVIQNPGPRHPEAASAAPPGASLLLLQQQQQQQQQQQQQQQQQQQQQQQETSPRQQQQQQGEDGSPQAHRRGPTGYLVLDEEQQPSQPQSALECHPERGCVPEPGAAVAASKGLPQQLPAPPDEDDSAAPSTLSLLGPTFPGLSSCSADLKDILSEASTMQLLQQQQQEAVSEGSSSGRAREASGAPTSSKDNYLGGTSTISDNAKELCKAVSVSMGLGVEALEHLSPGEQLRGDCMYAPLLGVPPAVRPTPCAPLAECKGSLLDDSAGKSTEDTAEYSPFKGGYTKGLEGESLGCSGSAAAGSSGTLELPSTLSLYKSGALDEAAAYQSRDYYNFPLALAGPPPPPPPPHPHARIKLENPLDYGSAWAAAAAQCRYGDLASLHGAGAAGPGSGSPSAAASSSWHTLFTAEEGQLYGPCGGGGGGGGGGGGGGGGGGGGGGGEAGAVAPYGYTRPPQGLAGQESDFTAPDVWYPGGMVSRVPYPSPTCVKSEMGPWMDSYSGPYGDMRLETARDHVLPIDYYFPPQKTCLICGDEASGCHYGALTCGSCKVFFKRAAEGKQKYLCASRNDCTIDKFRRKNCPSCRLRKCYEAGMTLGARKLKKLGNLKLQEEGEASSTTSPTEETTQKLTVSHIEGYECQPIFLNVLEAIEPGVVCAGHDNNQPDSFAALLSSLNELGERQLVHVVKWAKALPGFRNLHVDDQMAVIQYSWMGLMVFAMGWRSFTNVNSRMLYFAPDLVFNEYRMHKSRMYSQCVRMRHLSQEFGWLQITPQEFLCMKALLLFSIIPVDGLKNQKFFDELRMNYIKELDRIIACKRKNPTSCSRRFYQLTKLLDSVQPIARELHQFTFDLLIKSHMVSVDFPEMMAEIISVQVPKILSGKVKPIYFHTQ
Sequence of Protein cereblon/Androgen receptor (Q96SW2 whole entry): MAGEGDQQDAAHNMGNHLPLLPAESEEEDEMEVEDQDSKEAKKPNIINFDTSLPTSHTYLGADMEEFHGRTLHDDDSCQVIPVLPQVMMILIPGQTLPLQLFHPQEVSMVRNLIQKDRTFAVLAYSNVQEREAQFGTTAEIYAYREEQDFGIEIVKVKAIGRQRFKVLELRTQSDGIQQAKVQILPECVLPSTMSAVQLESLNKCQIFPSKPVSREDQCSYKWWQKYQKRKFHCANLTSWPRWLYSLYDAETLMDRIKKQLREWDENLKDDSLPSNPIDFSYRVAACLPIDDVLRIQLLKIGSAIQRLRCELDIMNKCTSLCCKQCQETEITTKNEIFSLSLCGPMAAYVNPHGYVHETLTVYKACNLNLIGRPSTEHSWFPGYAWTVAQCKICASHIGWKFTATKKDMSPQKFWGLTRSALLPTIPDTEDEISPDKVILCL

The assay has as its target Protein cereblon/Androgen receptor (Homo sapiens, UniProt P10275+Q96SW2). Description: Protac activity at E3 ubiquitin ligase/androgen receptor in human LNCaP cells assessed as induction of androgen receptor degradation incubated for overnight by sandwich ELISA. It is filed as cell-based.
In the case of `N#Cc1ccc(N2CCc3c(ncnc3Nc3ccc(C(=O)NCC(=O)N4CCC(CN5CCN(c6cc7c(cc6F)C(=O)N(C6CCC(=O)NC6=O)C7=O)CC5)CC4)c(F)n3)C2)cc1Cl` (configuration not stated), the DC50 came out at 2.8 nM. On to `N#Cc1ccc(N2CCc3c(ncnc3Nc3ccc(C(=O)N4CCC(CN5CCN(c6ccc7c(c6)C(=O)N(C6CCC(=O)NC6=O)C7=O)CC5)CC4)c(F)n3)C2)cc1Cl` (configuration not stated), for which the DC50 turned out to be 3.2 nM.

For the compound `CN(C1CCN(C(=O)c2ccc(Nc3ncnc4c3CCN(c3ccc(C#N)c(Cl)c3)C4)nc2F)CC1)C1CCN(c2cc3c(cc2F)C(=O)N(C2CCC(=O)NC2=O)C3=O)CC1` (configuration not stated), the DC50 came to 16.6 nM. Take `N#Cc1ccc(N2CCc3c(ncnc3Nc3ccc(C(=O)NC4CCN(CC5CCN(c6ccc7c(c6)C(=O)N(C6CCC(=O)NC6=O)C7=O)CC5)CC4)c(F)n3)C2)cc1Cl` (configuration not stated): the DC50 was 8.5 nM. Take `N#Cc1ccc(N2CCc3c(ncnc3Nc3ccc(C(=O)N[C@H]4CC[C@H](CN5CCN(c6cc7c(cc6F)C(=O)N(C6CCC(=O)NC6=O)C7=O)CC5)CC4)c(F)n3)C2)cc1Cl` (some centres not stated): the DC50 was found to be 9.2 nM.

Take `C[C@H]1CN(c2ccc3c(c2)C(=O)N(C2CCC(=O)NC2=O)C3=O)CCN1C[C@H]1CC[C@H](NC(=O)c2ccc(Nc3ncnc4c3CCN(c3ccc(C#N)c(Cl)c3)C4)nc2F)CC1` (some centres not stated): the DC50 was determined as 9.1 nM. With `CN(C1CCN(C(=O)c2ccc(Nc3ncnc4c3CCN(c3ccc(C#N)c(Cl)c3)C4)nc2F)CC1)C1CCN(c2ccc3c(c2)C(=O)N(C2CCC(=O)NC2=O)C3=O)CC1` (configuration not stated), the DC50 is 4.82 nM. As to `C[C@@H]1CN(c2ccc3c(c2)C(=O)N(C2CCC(=O)NC2=O)C3=O)CCN1C[C@H]1CC[C@H](NC(=O)c2ccc(Nc3ncnc4c3CCN(c3ccc(C#N)c(Cl)c3)C4)nc2F)CC1` (some centres not stated), the DC50 was 5.3 nM. As to `N#Cc1ccc(N2CCc3c(ncnc3Nc3ccc(C(=O)NC4CCN(C5CCN(c6ccc7c(c6)C(=O)N(C6CCC(=O)NC6=O)C7=O)CC5)CC4)c(F)n3)C2)cc1Cl` (configuration not stated), the DC50 was 4.9 nM.

`N#Cc1ccc(N2CCc3c(ncnc3Nc3ccc(C(=O)NCCC(=O)N4CCC(CN5CCN(c6cc7c(cc6F)C(=O)N(C6CCC(=O)NC6=O)C7=O)CC5)CC4)c(F)n3)C2)cc1Cl` (configuration not stated): the DC50 came to 7.7 nM.

`N#Cc1ccc(N2CCc3c(ncnc3Nc3ccc(C(=O)N4CCC(CN5CCN(c6cc7c(cc6F)C(=O)N(C6CCC(=O)NC6=O)C7=O)CC5)CC4)c(F)n3)C2)cc1Cl` (configuration not stated): the DC50 worked out at 11.6 nM. The same measure for `N#Cc1ccc(N2CCc3c(ncnc3Nc3ccc(C(=O)NCCCCCCN4CCN(c5ccc6c(c5)C(=O)N(C5CCC(=O)NC5=O)C6=O)CC4)c(F)n3)C2)cc1Cl` (configuration not stated): 3 nM.
